The values below are quoted from earlier work in patent US4916151A, “Method of treating parkinson's syndrome” (Merrell Dow Pharmaceuticals Inc., priority 1989, dated 1990).

SMILES strings stand for the structures.

One data set concerns MAO. Conditions: literature; selectivity lost as dosage is increased.
The conditions of data set [1]: literature.
Another data set relates to depression. Conditions: literature reports.

`N[C@@H]1C[C@H]1c1ccccc1` (relative stereo) [tranylcypromine]: in the data set with MAO, the “preferential inhibition of MAO-A or MAO-B” value (shortened to “preferential inhibition”) is “not preferential in their action upon MAO”.

Regarding `C#CCN(C)[C@H](C)Cc1ccccc1` [L-deprenyl], the “preferential inhibition” value in the data set with MAO is listed as “MAO-B is preferentially inhibited”. The “potentiation of L-dopa for treatment of Parkinson's disease” value in data set [1] is “potentiate L-dopa for the treatment of Parkinson's disease without producing peripheral side effects”. In the data set on depression, the clinical antidepressant effect entry is “clinically effective antidepressant agents”.

`C#CCN(C)CCCOc1ccc(Cl)cc1Cl` [clorgyline]: the clinical antidepressant effect result in the data set on depression is “clinically effective antidepressant agents”.

Turning to `Cc1cc(C(=O)NNCc2ccccc2)no1` [isocarboxazid], the “preferential inhibition” value in the data set on MAO is on record as “not preferential in their action upon MAO”.

Take `C#CCN(C)Cc1ccccc1` [pargyline]: the “preferential inhibition” value in the data set with MAO is given as “MAO-B is preferentially inhibited”. Also, the clinical antidepressant effect result in the data set on depression is on record as “clinically effective antidepressant agents”.

`NNCCc1ccccc1` [phenelzine]: the “preferential inhibition” value with MAO is reported as “not preferential in their action upon MAO”.
